This is an account of results in article PMC8761492 (Life Science Alliance, 2022).

The conditions of data set [1]: cited from earlier work.
A further data set deals with SARS-CoV-2/WA1. Description: SARS-CoV-2 infectivity in HeLa-ACE2 cells (viral NP). It counts as cell-based. Conditions: Severe acute respiratory syndrome coronavirus 2, HeLa-ACE2, 48 h.
The next data set has as its system HCoV-229E. The experiment in a line: Protocol estimate of target concentrations from the HCoV-229E experiment. Particulars: from IC50 0.555 µg/l assuming a Hill slope of 1.
A further data set has as its system SARS-CoV-2. Further details: method as in PMID 33495306. Particulars: SARS-CoV-2 in vitro; cited from earlier work.
Where [2] appears, read: 1-hour D1,8,15 q4wk, ref phase 1 programme.
[3] abbreviates: 1-hour iv D1-5 q3wk, ref APL-A-004-98.
The mark [4] stands for this setting: 3-hour D1,15 q4wk, ref phase 1 programme.
Setting [5] is: 24-hour D1,8,15 q4wk, ref phase 1 programme.
[6] abbreviates: 24-hour D1,15 q4wk, plitidepsin alone, ref phase 1 programme.

Converted amounts (≈) assume the structure as drawn. Like-named read-outs stand apart in the source and are kept apart here. Starred links: 1 amine or outer side, 2 acyl side, 3 side chain; linkers in the order of their positions; H or OH if unused. Positions of bridges follow the written chain, without caps; N, C: chain ends. Non-standard residues stand in square brackets, D forms with d. Residues, ends and D or L forms follow the SMILES beside them. *: point of attachment. X1 = CC[C@H](C)[C@@H](N[*:1])[C@@H](O)CC(=O)O[C@H](C(=O)[C@H](C)C(=O)[*:2])C(C)C; NMeY = CN[C@@H](Cc1ccc(O)cc1)C(=O)O; dNMeL = CN[C@H](CC(C)C)C(=O)O; Pyruvoyl = CC(=O)C(=O)*

Regarding `CC[C@H](C)[C@H]1NC(=O)[C@@H](NC(=O)[C@@H](CC(C)C)N(C)C(=O)[C@@H]2CCCN2C(=O)C(C)=O)[C@@H](C)OC(=O)[C@H](Cc2ccc(OC)cc2)N(C)C(=O)[C@@H]2CCCN2C(=O)[C@H](CC(C)C)NC(=O)[C@@H](C)C(=O)[C@H](C(C)C)OC(=O)C[C@@H]1O` [Plitidepsin] (Pyruvoyl-P[dNMeL]T[X1]LP[NMeY](Me); ester 3-C), the MTD in data set [1] (setting [2]) is given as 3.60 mg/m2; in data set [1] (setting [3]), 1.35 mg/m2; in data set [1] (setting [4]) it was 6 mg/m2; in data set [1] (setting [5]), 4.50 mg/m2; in data set [1] (setting [6]), 6 mg/m2. For the same compound, the RD in data set [1] (setting [2]) is reported as 3.2 mg/m2; in data set [1] (setting [3]), 1.2 mg/m2; in data set [1] (setting [4]), 5 mg/m2; in data set [1] (setting [5]) it was 3.75 mg/m2; in data set [1] (setting [6]) it was 5 mg/m2. For the same compound, the “recommended dose for subsequent phase 2 studies” value in data set [1] (cancer patients, daily over 5 consecutive days) is 1.2 mg/m^2/day. In the data set with SARS-CoV-2/WA1 (read-out: Antiviral IC50), the IC50 (usually the concentration that inhibits the measured activity by half) came to 0.201 nM. The IC90 – broadly, the point of the concentration-response curve where the effect stands at 90% – is 0.881 nM in the data set on SARS-CoV-2/WA1 (read-out: Antiviral IC90) and 0.88 nM in the data set with SARS-CoV-2. Also, the IC90 estimated in the data set on HCoV-229E is 4.995 ng/mL (≈ 4.5 nM).
